According to ChEMBL document CHEMBL5291721, “A preclinical secondary pharmacology resource illuminates target-adverse drug reaction associations of marketed drugs” (Nat Commun, 2023):

Assays:
Adenosine receptor A3 = biological target: T1, Adenosine receptor A3 (Homo sapiens, UniProt P0DMS8)
T1 sequence (P0DMS8 whole entry): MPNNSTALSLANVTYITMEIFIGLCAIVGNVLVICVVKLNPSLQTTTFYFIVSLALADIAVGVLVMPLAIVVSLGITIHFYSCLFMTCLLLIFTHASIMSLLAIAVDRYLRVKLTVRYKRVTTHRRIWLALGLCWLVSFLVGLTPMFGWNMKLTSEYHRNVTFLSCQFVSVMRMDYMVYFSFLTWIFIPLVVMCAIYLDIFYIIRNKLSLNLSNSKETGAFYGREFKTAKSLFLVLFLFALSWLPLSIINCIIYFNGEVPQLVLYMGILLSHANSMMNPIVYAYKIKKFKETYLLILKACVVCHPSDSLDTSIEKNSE

Vasopressin V1a receptor = Vasopressin V1a receptor (Homo sapiens, UniProt P37288)
[1] = biological target: Gamma-aminobutyric acid receptor subunit alpha-1 (Rattus norvegicus, UniProt P62813)
[2] = biological target: Glutamate receptor ionotropic, NMDA 1 (Rattus norvegicus, UniProt P35439)
Histamine H1 receptor = Histamine H1 receptor (Homo sapiens, UniProt P35367)
[3] = biological target: T2, 5-hydroxytryptamine receptor 1A (Homo sapiens, UniProt P08908); format: functional, cell-based
T2 sequence (P08908 whole entry): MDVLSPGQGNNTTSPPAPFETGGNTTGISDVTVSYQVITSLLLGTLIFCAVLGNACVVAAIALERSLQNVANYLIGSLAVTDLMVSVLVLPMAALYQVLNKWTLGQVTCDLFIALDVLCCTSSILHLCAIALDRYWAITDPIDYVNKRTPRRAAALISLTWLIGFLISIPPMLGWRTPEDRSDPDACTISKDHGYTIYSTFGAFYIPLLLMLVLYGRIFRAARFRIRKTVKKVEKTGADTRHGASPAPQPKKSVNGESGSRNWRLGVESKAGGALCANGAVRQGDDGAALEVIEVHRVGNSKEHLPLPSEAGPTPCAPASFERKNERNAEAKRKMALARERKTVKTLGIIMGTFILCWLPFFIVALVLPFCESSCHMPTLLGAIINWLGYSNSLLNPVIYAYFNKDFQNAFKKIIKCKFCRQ

Motilin receptor = Motilin receptor (Homo sapiens, UniProt O43193)
Progesterone receptor = biological target: T3, Progesterone receptor (Homo sapiens, UniProt P06401); format: functional
T3 sequence (P06401 whole entry): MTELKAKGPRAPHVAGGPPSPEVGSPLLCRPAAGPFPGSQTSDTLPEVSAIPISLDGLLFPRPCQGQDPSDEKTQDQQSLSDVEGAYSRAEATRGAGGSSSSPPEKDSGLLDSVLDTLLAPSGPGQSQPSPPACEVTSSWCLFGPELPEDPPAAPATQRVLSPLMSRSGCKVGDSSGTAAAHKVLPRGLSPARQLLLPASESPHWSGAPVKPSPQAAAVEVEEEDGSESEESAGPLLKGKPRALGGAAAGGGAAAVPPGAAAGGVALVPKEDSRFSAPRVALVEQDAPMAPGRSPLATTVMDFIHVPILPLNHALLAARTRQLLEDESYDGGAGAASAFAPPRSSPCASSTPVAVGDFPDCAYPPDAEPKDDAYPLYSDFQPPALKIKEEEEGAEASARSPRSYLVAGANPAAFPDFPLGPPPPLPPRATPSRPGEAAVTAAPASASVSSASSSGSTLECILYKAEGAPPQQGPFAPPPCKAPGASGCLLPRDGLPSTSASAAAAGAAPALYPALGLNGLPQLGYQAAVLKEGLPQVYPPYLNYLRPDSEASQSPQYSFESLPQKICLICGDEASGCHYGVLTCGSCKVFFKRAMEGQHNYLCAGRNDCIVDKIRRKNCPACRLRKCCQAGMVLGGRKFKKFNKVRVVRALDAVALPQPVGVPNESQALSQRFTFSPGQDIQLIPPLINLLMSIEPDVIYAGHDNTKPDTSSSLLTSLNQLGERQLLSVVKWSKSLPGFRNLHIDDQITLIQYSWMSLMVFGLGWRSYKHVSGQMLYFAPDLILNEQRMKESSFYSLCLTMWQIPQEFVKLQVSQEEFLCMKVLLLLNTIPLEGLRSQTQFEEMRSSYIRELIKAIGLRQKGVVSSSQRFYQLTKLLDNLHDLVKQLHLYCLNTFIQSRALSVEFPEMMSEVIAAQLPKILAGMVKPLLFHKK
Further: assay procedure not described here.

Vasopressin V1a receptor, sequence (P37288 whole entry): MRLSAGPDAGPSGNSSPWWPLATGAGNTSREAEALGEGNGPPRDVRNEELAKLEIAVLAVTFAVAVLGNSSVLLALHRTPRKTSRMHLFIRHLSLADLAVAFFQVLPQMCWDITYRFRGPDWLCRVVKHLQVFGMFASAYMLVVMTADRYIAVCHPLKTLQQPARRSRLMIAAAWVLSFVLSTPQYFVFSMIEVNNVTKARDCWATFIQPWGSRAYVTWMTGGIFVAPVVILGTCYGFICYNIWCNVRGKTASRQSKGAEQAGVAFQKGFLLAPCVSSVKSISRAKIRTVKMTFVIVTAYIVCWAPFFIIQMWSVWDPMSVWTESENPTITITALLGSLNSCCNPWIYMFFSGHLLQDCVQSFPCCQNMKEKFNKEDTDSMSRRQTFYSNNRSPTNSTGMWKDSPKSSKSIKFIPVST
Motilin receptor, sequence (O43193 whole entry): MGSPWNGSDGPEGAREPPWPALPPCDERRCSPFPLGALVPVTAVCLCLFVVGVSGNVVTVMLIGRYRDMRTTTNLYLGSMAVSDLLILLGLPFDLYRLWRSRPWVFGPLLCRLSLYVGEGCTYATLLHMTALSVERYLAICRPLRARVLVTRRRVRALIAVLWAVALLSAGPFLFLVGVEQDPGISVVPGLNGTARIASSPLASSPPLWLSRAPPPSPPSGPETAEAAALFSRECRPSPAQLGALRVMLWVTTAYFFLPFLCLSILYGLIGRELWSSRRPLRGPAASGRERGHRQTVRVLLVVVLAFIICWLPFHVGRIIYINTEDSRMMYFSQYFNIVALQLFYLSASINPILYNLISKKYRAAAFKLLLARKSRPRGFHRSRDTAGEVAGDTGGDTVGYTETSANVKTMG
Gamma-aminobutyric acid receptor subunit alpha-1, sequence (P62813 whole entry): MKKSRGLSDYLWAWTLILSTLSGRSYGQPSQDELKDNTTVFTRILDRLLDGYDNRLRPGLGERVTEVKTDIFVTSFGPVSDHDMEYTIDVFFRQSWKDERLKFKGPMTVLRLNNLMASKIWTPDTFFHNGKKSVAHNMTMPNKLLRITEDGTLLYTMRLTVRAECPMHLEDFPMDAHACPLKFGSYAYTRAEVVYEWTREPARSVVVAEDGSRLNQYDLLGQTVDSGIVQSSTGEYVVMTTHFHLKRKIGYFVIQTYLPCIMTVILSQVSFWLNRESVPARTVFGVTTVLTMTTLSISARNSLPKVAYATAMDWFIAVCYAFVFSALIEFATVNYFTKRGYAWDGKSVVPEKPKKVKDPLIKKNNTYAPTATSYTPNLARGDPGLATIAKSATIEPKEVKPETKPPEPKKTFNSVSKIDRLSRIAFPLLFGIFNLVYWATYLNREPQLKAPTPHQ
Histamine H1 receptor, sequence (P35367 whole entry): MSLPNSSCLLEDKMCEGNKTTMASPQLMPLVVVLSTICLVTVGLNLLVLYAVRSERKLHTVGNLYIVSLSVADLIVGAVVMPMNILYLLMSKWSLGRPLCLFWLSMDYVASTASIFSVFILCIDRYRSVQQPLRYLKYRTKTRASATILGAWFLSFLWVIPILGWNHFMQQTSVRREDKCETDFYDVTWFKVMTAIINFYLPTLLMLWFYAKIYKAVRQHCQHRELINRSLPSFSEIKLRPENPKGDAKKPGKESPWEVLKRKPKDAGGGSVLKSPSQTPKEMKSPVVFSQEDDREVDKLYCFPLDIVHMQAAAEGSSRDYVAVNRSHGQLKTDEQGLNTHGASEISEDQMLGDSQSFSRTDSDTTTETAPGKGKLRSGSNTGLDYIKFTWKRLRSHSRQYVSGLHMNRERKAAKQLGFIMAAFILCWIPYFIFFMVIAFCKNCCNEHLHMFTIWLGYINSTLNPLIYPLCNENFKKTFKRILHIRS

SMILES | AC50 (Adenosine receptor A3) [µM] | AC50 (Vasopressin V1a receptor) [µM] | AC50 [1] [µM] | AC50 [2] [µM] | AC50 (Histamine H1 receptor) [µM] | AC50 [3] [µM] | AC50 (Motilin receptor) [µM] | AC50 (Progesterone receptor) [µM]
COc1ccc(-c2ccc3cc(C(=O)O)ccc3c2)cc1C12CC3CC(CC(C3)C1)C2 | > 30 | > 30 | > 30 | > 30 | > 30 | > 30 | > 30 | 4.2
CNS(=O)(=O)Cc1ccc2[nH]cc(CCN(C)C)c2c1 | > 30 | > 10 | > 30 | > 30 |  |  | > 10 | 
CC(=O)O[C@H]1CC[C@@]2(C)C(=CC[C@@H]3[C@@H]2CC[C@]2(C)C(c4cccnc4)=CC[C@@H]32)C1 [ABIRATERONE ACETATE] | > 30 | > 30 |  |  | > 30 |  | > 30 | > 30
NCC(=O)CCC(=O)O [AMINOLEVULINIC ACID] | > 30 | > 30 | > 30 | > 30 | > 30 |  | > 30 | > 30
O=C(O)CCCCCCCC(=O)O [AZELAIC ACID] | > 10 | > 10 | > 10 | > 10 | > 10 | > 10 | > 10 | > 10
Cn1c(=O)c2c(ncn2CC2OCCO2)n(C)c1=O [DOXOFYLLINE] | > 30 |  | > 30 | > 30 |  | > 30 | > 30 | > 30
CCCCc1ncc(/C=C(\Cc2cccs2)C(=O)O)n1Cc1ccc(C(=O)O)cc1 [EPROSARTAN] | > 10 | > 30 | > 10 | > 10 | > 10 | > 10 | > 10 | 
C[C@]1(O)CC[C@H]2[C@@H]3CCC4=CC(=O)CC[C@]4(C)[C@@]3(F)[C@@H](O)C[C@@]21C [FLUOXYMESTERONE] | > 10 | > 10 | > 10 | > 10 | > 30 | > 10 | > 10 | 
COc1ccc(CCN(C)CCCC(C#N)(c2cc(OC)c(OC)c(OC)c2)C(C)C)cc1OC (centres undefined) [GALLOPAMIL] | > 30 | > 30 | > 30 | > 30 | > 30 | 11 | > 30 | 
CCCC(=O)O[C@]1(C(=O)CO)CC[C@H]2[C@@H]3CCC4=CC(=O)CC[C@]4(C)[C@H]3[C@@H](O)C[C@@]21C [HYDROCORTISONE BUTYRATE] | > 10 | > 10 | > 10 | > 10 | > 10 | > 10 | > 10 | 
CC(C)C(=O)c1c(C(C)C)nn2ccccc12 [IBUDILAST] | > 30 | > 30 | > 30 | > 30 | > 30 |  | > 30 | > 30
Nc1nc(N)nc(-c2cc(Cl)ccc2Cl)n1 [IRSOGLADINE] | > 30 |  |  |  |  |  | > 30 | > 30
CNC(C)CCC=C(C)C (centres undefined) [ISOMETHEPTENE] | > 30 | > 30 |  |  |  |  | > 30 | > 30
CC(Oc1c(Cl)cccc1Cl)C1=NCCN1 (centres undefined) [LOFEXIDINE] | > 30 | > 30 | > 30 | > 30 | > 30 |  | > 30 | > 30
Cc1cccc(C(C)c2cnc[nH]2)c1C (centres undefined) [MEDETOMIDINE] | > 30 | > 30 | > 10 | > 10 | > 30 | > 30 | > 30 | > 30
C[C@](N)(Cc1ccc(O)c(O)c1)C(=O)O [METHYLDOPA] | > 30 |  | > 10 | > 10 |  | > 10 | > 10 | > 30
O=C(NCCN1CCOCC1)c1ccc(Cl)cc1 [MOCLOBEMIDE] | > 10 |  | > 10 | > 10 |  | > 10 | > 10 | > 10
CCCc1nc(C(C)(C)O)c(C(=O)OCc2oc(=O)oc2C)n1Cc1ccc(-c2ccccc2-c2nnn[nH]2)cc1 [OLMESARTAN MEDOXOMIL] | > 10 | > 30 | > 10 | > 10 | > 10 | > 10 | > 10 | 
N#Cc1ccc([C@H]2CCc3cncn32)c(F)c1 [OSILODROSTAT] | > 10 | > 10 | > 10 | > 10 | 10 |  | > 10 | 
O=C(O)/C=C/c1ccc(Cn2ccnc2)cc1 [OZAGREL] | > 30 | > 30 | > 30 | > 30 | > 30 | > 30 | > 30 | > 30
CCCN(CCC)C(=O)C(CCC(=O)O)NC(=O)c1ccccc1 (centres undefined) [PROGLUMIDE] | > 30 | > 30 | > 10 | > 10 |  | > 10 | > 30 | > 30
C#C[C@]1(O)CC[C@H]2[C@@H]3CCc4cc(OC5CCCC5)ccc4[C@H]3CC[C@@]21C [QUINESTROL] | > 10 | > 10 | > 10 | > 10 | > 10 | > 10 | > 10 | 
CCN(CC)C(=O)N[C@H]1C[C@@H]2c3cccc4[nH]cc(c34)C[C@H]2N(C)C1 [TERGURIDE] | > 30 | > 30 | > 30 | > 30 | 2.1 |  | > 30 | > 30
C/C(O)=C(\C#N)C(=O)Nc1ccc(C(F)(F)F)cc1 [TERIFLUNOMIDE] | > 30 | > 30 |  |  | > 30 | > 30 | > 30 | > 30
C[C@]12CC[C@H]3[C@@H](CCC4=CC(=O)CC[C@@]43C)[C@@H]1CC[C@@H]2O [TESTOSTERONE] | > 10 |  | > 10 | > 10 |  | > 10 | > 10 | 
O=C(NCCNCC(O)COc1ccc(O)cc1)N1CCOCC1 (centres undefined) [XAMOTEROL] | > 30 | > 30 | > 30 | > 30 | > 30 | > 30 | > 30 | > 30
